Measured values reported in PMC7142710, “Identification of a Key Enzyme for the Hydrolysis of β-(1→3)-Xylosyl Linkage in Red Alga Dulse Xylooligosaccharide from Bifidobacterium Adolescentis” (Marine Drugs, 2020).

Tests used:
Assay in all cases: HPLC-RI of hydrolysis products
Format in all cases: biochemical
[1] = molecular target: T1, BAD1527 (Bifidobacterium adolescentis, UniProt A1A3M5); conditions: 10 mM substrate, 50 μg/mL enzyme, 20 mM sodium phosphate pH 6.5, 37 °C, 1 h; weak substrate
T1 construct: gene xynD; full length, N-terminal His-tag (pET28a), no signal peptide, E. coli BL21(DE3), TALON purified
T1 sequence (A1A3M5 1-345): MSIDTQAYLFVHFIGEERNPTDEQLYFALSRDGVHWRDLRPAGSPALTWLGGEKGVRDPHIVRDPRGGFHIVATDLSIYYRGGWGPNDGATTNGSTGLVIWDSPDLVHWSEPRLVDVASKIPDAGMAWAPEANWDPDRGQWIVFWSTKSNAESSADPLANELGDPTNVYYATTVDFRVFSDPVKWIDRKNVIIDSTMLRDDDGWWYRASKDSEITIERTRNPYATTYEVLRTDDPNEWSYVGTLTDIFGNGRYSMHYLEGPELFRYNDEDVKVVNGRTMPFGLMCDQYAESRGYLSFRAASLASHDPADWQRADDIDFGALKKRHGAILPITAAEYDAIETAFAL

[2] = molecular target: T2, BAD0423 (Bifidobacterium adolescentis, UniProt A1A0H1); conditions: 10 mM substrate, 50 μg/mL enzyme, 20 mM sodium phosphate pH 6.5, 37 °C, 1 h; products xylose and xylobiose
T2 construct: gene BAD_0423; full length, N-terminal His-tag (pET28a), no signal peptide, E. coli BL21(DE3), TALON purified
T2 sequence (A1A0H1 1-564): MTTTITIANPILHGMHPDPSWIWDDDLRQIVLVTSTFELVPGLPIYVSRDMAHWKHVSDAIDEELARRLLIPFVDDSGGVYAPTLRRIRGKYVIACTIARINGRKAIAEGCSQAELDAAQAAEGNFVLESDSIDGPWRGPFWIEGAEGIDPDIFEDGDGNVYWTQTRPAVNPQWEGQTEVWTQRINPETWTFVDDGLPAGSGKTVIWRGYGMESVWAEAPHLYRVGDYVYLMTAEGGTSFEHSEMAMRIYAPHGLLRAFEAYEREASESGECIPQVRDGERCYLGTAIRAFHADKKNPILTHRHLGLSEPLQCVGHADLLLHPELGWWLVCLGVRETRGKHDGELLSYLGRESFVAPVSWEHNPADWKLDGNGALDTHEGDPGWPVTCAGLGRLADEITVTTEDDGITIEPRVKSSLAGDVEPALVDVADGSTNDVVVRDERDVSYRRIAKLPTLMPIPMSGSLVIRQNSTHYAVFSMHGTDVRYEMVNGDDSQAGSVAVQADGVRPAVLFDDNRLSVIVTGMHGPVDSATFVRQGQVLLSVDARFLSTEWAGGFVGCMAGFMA

[3] = molecular target: T3, BAD0428 (Bifidobacterium adolescentis, UniProt A1A0H6); conditions: 10 mM substrate, 50 μg/mL enzyme, 20 mM sodium phosphate pH 6.5, 37 °C, 1 h; product xylose
T3 construct: gene xynB; full length, N-terminal His-tag (pET28a), no signal peptide, E. coli BL21(DE3), TALON purified
T3 sequence (A1A0H6 1-543): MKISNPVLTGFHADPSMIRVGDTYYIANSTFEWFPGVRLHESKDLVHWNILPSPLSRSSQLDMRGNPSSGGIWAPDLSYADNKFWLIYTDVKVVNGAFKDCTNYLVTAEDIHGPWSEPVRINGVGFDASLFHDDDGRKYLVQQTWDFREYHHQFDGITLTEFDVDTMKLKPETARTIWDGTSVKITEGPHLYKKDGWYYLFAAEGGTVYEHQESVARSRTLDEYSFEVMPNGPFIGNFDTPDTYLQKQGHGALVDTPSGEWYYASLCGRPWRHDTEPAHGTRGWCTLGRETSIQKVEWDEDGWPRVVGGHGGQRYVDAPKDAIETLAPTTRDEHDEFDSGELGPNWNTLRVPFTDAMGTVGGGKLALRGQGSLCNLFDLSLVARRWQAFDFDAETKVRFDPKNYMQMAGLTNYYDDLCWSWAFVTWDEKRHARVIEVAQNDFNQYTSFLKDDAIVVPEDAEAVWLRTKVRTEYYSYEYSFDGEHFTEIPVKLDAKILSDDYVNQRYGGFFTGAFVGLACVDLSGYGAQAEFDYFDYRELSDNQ

OC1OC[C@@H](O[C@@H]2OC[C@@H](O)[C@H](O[C@@H]3OC[C@@H](O)[C@H](O)[C@H]3O)[C@H]2O)[C@H](O)[C@H]1O (stereo partly drawn) [DX3, 2^3-β-D-xylosyl-xylobiose]
specific activity [1]: specific activity of BAD0423, BAD0428, and BAD1527 on DX3 was determined by HPLC | specific activity [2]: BAD0423 showed low activities on X2 and X3 but high activity on DX3 | specific activity [3]: specific activity of BAD0423, BAD0428, and BAD1527 on DX3 was determined by HPLC
